According to US6673938B1, “Substituted pyridine herbicides” (Syngenta Participations AG, priority 1998, dated 2004):

Tested on: Monocotyledonous and dicotyledonous test plants
Experiment: Post-emergence herbicidal action
Format: in vivo
Conditions: evaluated after approximately 18 days; for Post-emergence action, Ipomoea / Post-emergence action, Lolium / Post-emergence action, Setaria / Post-emergence action, Sinapis / Post-emergence action, Solanum / Post-emergence action, Stellaria: 2000 g/ha, sprayed in 4- to 6-leaf stage, nine-step scale; for Post-emergence action: Abutilon (score, nine-step scale) / Post-emergence action: Chenop. (score, nine-step scale) / Post-emergence action: Digitaria (score, nine-step scale) / Post-emergence action: Echino. (score, nine-step scale) / Post-emergence action: Ipopur. (score, nine-step scale) / Post-emergence action: Panicum (score, nine-step scale) / Post-emergence action: Xanth. (score, nine-step scale): 250 g/ha, sprayed at 4- to 6-leaf stage
Protocol: Monocotyledonous and dicotyledonous test plants are grown in the greenhouse in plastic pots containing standard soil, and, in the 4- to 6-leaf stage, sprayed with an aqueous suspension of the test substances of the formula I prepared with a 25% wettable powder (Example F3, b) in accordance with WO 97/34485) or with an emulsion of the test substances of the formula I prepared with a 25% emulsion concentrate (Example F1, c) in accordance with WO 97/34485), corresponding to a rate of 2 kg of a.i./ha or 250 g of a.i./ha (500 l of water/ha). The test plants are subsequently grown on in the greenhouse under optimal conditions. After a test period of approximately 18 days, the test is evaluated with reference to a nine-step scale (1=complete damage, 9=no effect). Score figures of 1 to 4 (in particular 1 to 3) mean a good to very good herbicidal action. In this test, the compounds of the formula I show a potent herbicidal action.

Row | SMILES | Post-emergence action, Ipomoea | Post-emergence action, Lolium | Post-emergence action, Setaria | Post-emergence action, Sinapis | Post-emergence action, Solanum | Post-emergence action, Stellaria | Post-emergence action: Abutilon (score, nine-step scale) | Post-emergence action: Chenop. (score, nine-step scale) | Post-emergence action: Digitaria (score, nine-step scale) | Post-emergence action: Echino. (score, nine-step scale) | Post-emergence action: Ipopur. (score, nine-step scale) | Post-emergence action: Panicum (score, nine-step scale) | Post-emergence action: Xanth. (score, nine-step scale)
1 | CCCc1nc(C(F)(F)F)ccc1C(=O)C1=C(O)C(C)(C)CCC1=O [Compound A7-B24] | 1 | 2 | 2 | 1 | 2 | 2 | – | – | – | – | – | – | –
2 | COCc1nc(C(F)(F)F)ccc1C(=O)C1=C(O)C(C)C2CC2C1=O (centres unmarked) [Compound A8-D109] | – | – | – | – | – | – | 3 | 3 | 3 | 3 | 2 | 3 | 1
3 | Cc1cc(C(F)(F)F)ncc1C(=O)C1=C(O)C(C)(C)CCC1=O [Compound A531-B24] | 2 | 2 | 2 | 1 | 2 | 2 | – | – | – | – | – | – | –
4 | Cc1nc(C(F)(F)C(F)(F)F)ccc1C(=O)C1=C(O)C(C)(C)CCC1=O [Compound A34-B24] | 1 | 2 | 2 | 1 | 2 | 2 | – | – | – | – | – | – | –
5 | COCc1nc(C(F)(F)F)ccc1C(=O)C1=C(O)CC(C)CC1=O (centres unmarked) [Compound A8-B133] | 2 | 4 | 2 | 1 | 2 | 2 | – | – | – | – | – | – | –
6 | COC(=O)C1C(O)=C(C(=O)c2ccc(C(F)(F)F)nc2C)C(=O)CC1(C)C (centres unmarked) [Compound A2-B1094] | – | – | – | – | – | – | 3 | 2 | 3 | 2 | 3 | 2 | 3
7 | Cc1nc(C(F)(F)F)ccc1C(=O)C1=C(O)CCC2(CCCCCC2)C1=O [Compound A2-C149] | 1 | 3 | 2 | 1 | 2 | 2 | – | – | – | – | – | – | –
8 | CCCC1(C)CC(C)C(=O)C(C(=O)c2ccc(C(F)(F)F)nc2C)=C1O (centres unmarked) [Compound A2-B70] | 3 | 4 | 3 | 1 | 2 | 2 | – | – | – | – | – | – | –
9 | COCc1nc(C(F)(F)F)ccc1C(=O)C1=C(O)C(C)C(C)CC1=O (centres unmarked) [Compound A8-B134] | – | – | – | – | – | – | 2 | 2 | 3 | 3 | 3 | 3 | 3
10 | Cc1nc(C(F)(F)F)ccc1C(=O)C1=C(O)CC(C)(C(F)(F)F)CC1=O (centres unmarked) [Compound A2-B1066] | 1 | 3 | 2 | 1 | 2 | 2 | – | – | – | – | – | – | –
11 | CCC1(CC)CCC(=O)C(C(=O)c2ccc(C(F)(F)F)nc2C)=C1O [Compound A2-B112] | 2 | 3 | 2 | 1 | 2 | 2 | – | – | – | – | – | – | –
12 | COCc1nc(C(F)(F)F)ccc1C(=O)C1=C(O)CCC=C(C)C1=O [Compound A8-F5] | – | – | – | – | – | – | 3 | 3 | 3 | 4 | 3 | 4 | 3
13 | CSC1(C)CCC(=O)C(C(=O)c2ccc(C(F)(F)F)nc2C)=C1O (centres unmarked) [Compound A2-B29] | 2 | 3 | 2 | 1 | 2 | 2 | – | – | – | – | – | – | –
14 | COCc1nc(C(F)(F)F)ccc1C(=O)C1=C(O)CC2CCCC2C1=O (centres unmarked) [Compound A8-D36] | – | – | – | – | – | – | 2 | 2 | 3 | 2 | 3 | 3 | 3
15 | CCN(CC)CC.Cc1nc(C(F)(F)F)ccc1C(=O)C1=C(O)CC(C)CC1=O (centres unmarked) [Compound A2-B1101] | 2 | 2 | 2 | 1 | 1 | 3 | – | – | – | – | – | – | –
16 | CC1(C)CCC(=O)C(C(=O)c2ccc(C(F)(F)F)nc2C2CC2)=C1O [Compound A6-B24] | 1 | 3 | 2 | 1 | 1 | 2 | – | – | – | – | – | – | –
17 | Cc1nc(C(F)(F)F)ccc1C(=O)C1=C(O)C2CC2C(C)([S+](C)[O-])C1=O (centres unmarked) [Compound A2-D114, 5-Hydroxy-2-methanesulfinyl-2-methyl-4-(2-methyl-6-trifluoromethylpyridine-3-carbonyl)bicyclo[4.1.0]hept-4-en-3-one] | 2 | 1 | 1 | 1 | 1 | 1 | – | – | – | – | – | – | –
18 | CCSC1(CC)CC(C)C(=O)C(C(=O)c2ccc(C(F)(F)F)nc2C)=C1O (centres unmarked) [Compound A2-B1091] | – | – | – | – | – | – | 3 | 3 | 4 | 2 | 3 | 4 | 4
19 | CCOC(=O)C1(C)C(O)=C(C(=O)c2ccc(C(F)(F)F)nc2COC)C(=O)C2CC21 (centres unmarked) [Compound A8-D111] | – | – | – | – | – | – | 3 | 3 | 3 | 3 | 2 | 3 | 1
20 | CC1=CCCC(O)=C(C(=O)c2ccc(C(F)(F)F)nc2C)C1=O [Compound A2-F5, 3-Hydroxy-7-methyl-2-(2-methyl-6-trifluoromethyloyridine-3-carbonyl)cyclohepta-2,6-dienone] | – | – | – | – | – | – | 3 | 3 | 3 | 3 | 4 | 3 | 3
21 | COC(=O)C1(C)C(O)=C(C(=O)c2ccc(C(F)(F)F)nc2C)C(=O)CC1(C)C (centres unmarked) [Compound A2-B1087] | 1 | 4 | 3 | 1 | 2 | 2 | – | – | – | – | – | – | –
22 | CCC1(CC)CC(C)C(=O)C(C(=O)c2ccc(C(F)(F)F)nc2C)=C1O (centres unmarked) [Compound A2-B1093] | 2 | 2 | 2 | 1 | 2 | 2 | – | – | – | – | – | – | –
23 | Cc1nc(C(F)(F)F)ccc1C(=O)C1=C(O)CC(c2ccccc2)CC1=O (centres unmarked) [Compound A2-B1058] | 1 | 2 | 4 | 1 | 2 | 2 | – | – | – | – | – | – | –
